From US7659277B2, “Ubiquitin ligase inhibitors and methods related thereto” (Proteologies, Ltd., priority 2003, dated 2010) come the findings set out here.

Assay [1] concerns HIV-1. The experiment in a line: HIV maturation (budding) in virus-like particle assay, HIV-1 p24 antigen ELISA. Conditions: Human immunodeficiency virus 1, read-out: Budding (3 μM). The format is cell-based. An excerpt:
Compounds were further assessed for effects on maturation of HIV particles in a virus-like particle assay.
On the technique in general: An ELISA detects its analyte on a solid surface through an enzyme-linked reagent.

Assay [2] deals with T1, POSH (Homo sapiens, UniProt Q7Z6J0).
T1 construct: GST-POSH lot NB81/p.118 3.6 mg/ml; fused on or other part: GST tag, used for detection with anti-GST XL665
T1 sequence (Q7Z6J0 1-269 limits assumed): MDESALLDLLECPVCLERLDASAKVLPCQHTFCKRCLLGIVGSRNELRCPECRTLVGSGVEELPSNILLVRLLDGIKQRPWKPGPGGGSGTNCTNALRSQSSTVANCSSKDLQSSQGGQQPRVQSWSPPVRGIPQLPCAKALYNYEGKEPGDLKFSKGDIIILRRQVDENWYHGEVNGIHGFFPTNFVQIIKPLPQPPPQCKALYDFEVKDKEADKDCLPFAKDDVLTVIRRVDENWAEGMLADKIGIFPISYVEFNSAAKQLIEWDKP
The assay is described as follows: IC50 assay procedure: GST-POSH auto-ubiquitination, homogeneous time-resolved fluorescence (Ub-cryptate / anti-GST XL665). The format is biochemical. The settings on record: ubiquitin ligase activity of POSH; GST-POSH 33 nM, 30 min preincubation. Summed up:
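GST-POSH (33 nM) preincubated 30 min at RT with compounds (DMSO dilution series), then added to E1/E2/Eu-cryptate-ubiquitin enzyme mix for 30 min at 37 °C. Stopped with EDTA, anti-GST XL665 added 45 min at RT; HTRF signal of POSH auto-ubiquitination read, triplicates, IC50 from concentration series.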

For assay [3], the target named is c-cbl (Homo sapiens, UniProt P22681). The experiment in a line: Selectivity (% A in 1 μM), ubiquitin ligase activity of c-cbl. The format is biochemical. The settings on record: % activity at 1 μM compound; control is related to 100% activity; HTS protocol.
Assay [4] concerns E2 protein. The format is biochemical. Conditions: % activity at 1 μM compound; control is related to 100% activity; HTS protocol.

One may read the IC50 as the concentration that gives 50% inhibition. Regarding `Cc1cc(OC(=O)Cn2c(=O)sc3ccccc32)ccc1Cl` [Compound 103], the activity at 3 µM in assay [1] came to 69%. The same molecule registered an IC50 in assay [2] of 400 nM.

Broadly, the remaining activity is the signal under treatment as a percentage of the control signal. `Cc1ccc(C(=O)NN=C2CCC(=NNC(=O)c3ccc(C)cc3)CC2)cc1` [Compound 93]: the remaining activity at 1 µM in assay [3] is 84%. Besides, the IC50 in assay [2] was 1300 nM. Besides, the “Selectivity (% A* in 1 μM) E2” value in assay [4] is 78%.

`CN(C)c1ccc(/C=C2/C(=O)NC(=O)N(C3CCCCC3)C2=O)cc1` [Compound 3] registered an IC50 in assay [2] of 900 nM.

Regarding `Cc1cc(O)c(C(=O)/C=C/c2cccc(I)c2)c(=O)o1` [Compound 87], the activity at 3 µM in assay [1] was determined as 29%. This molecule came in with a half-inhibitory concentration (IC50) in assay [2] of 800 nM.

With `O=C(Cc1ccccc1)N1N=CCC1(O)c1ccc(F)cc1` (stereo not shown) [Compound 94], in assay [3], the remaining activity at 1 µM was 106%. For the same molecule, in assay [2], it took 1000 nM to reach half-maximal inhibition (IC50). Also, the “Selectivity (% A* in 1 μM) E2” value in assay [4] worked out at 49%.

On to `O=C1c2ccccc2-c2nc3nonc3nc21` [Compound 91], for which the activity at 3 µM in assay [1] turned out to be 33%. This molecule came in with an IC50 in assay [2] of 300 nM.

Take `O=C(/C=C/c1cccnc1)c1ccc(C(=O)/C=C/c2cccnc2)cc1` [Compound 92]: the remaining activity at 1 µM in assay [3] came to 111%. The same molecule showed an IC50 in assay [2] of 500 nM. Further, the “Selectivity (% A* in 1 μM) E2” value in assay [4] is 125%.

As for `O=C(NC(C(Cl)(Cl)Cl)S(=O)(=O)c1ccccc1)c1ccc(Cl)cc1Cl` (stereo not shown) [Compound 88], the activity at 3 µM in assay [1] was 57%. This molecule had an IC50 in assay [2] of 250 nM.

As to `O=C(Nc1cccc2c(NC(=O)C3C4CCCCC43)cccc12)C1C2CCCCC21` (stereo not shown) [Compound 97], the activity at 3 µM in assay [1] turned out to be 64%. This molecule returned an IC50 in assay [2] of 600 nM.

As to `COc1ccc(Nc2ccc(O)c3c2C(=O)c2ccccc2C3=O)cc1` [Compound 100], the remaining activity at 1 µM in assay [3] was 100%. Also, 700 nM corresponded to half-maximal inhibition in assay [2] (IC50). Further, in assay [4], the “Selectivity (% A* in 1 μM) E2” value is recorded as 59%.

On to `O=C(O)COc1ccc2c(c1)oc(=O)c1ccccc12` [Compound 85], for which the activity at 3 µM in assay [1] came to 59%. The molecule further came in with an IC50 in assay [2] of 700 nM.

For `COC(=O)C1=C(C(=O)OC)SC(=C2C(=S)C(C)(C)N(C(C)=O)c3cc(C)ccc32)S1` [Compound 99], the remaining activity at 1 µM in assay [3] came to 88%. The IC50 in assay [2] is 1500 nM. The “Selectivity (% A* in 1 μM) E2” value in assay [4] turned out to be 89%.

As for `Cc1[nH]c(=O)c(C(=O)/C=C/c2ccccc2F)c2c1CCCC2` [Compound 95], in assay [3], the remaining activity at 1 µM was determined as 136%. Also, the IC50 in assay [2] amounted to 1000 nM. In addition, the “Selectivity (% A* in 1 μM) E2” value in assay [4] was determined as 100%.

With `COc1ccc(C(=O)CC2=C(O)C(=O)c3ccccc3C2=O)cc1` [Compound 89], the remaining activity at 1 µM in assay [3] stood at 109%. In assay [2], this molecule returned an IC50 of 1000 nM. The “Selectivity (% A* in 1 μM) E2” value in assay [4] is 70%.

On to `COc1cc(C2Nc3ccccc3NC3=C2C(=O)CC(C)(C)C3)cc(Br)c1O` (stereo not shown) [Compound 102], for which, in assay [3], the remaining activity at 1 µM is 111%. It took 800 nM to reach half-maximal inhibition in assay [2] (IC50). Moreover, in assay [4], the “Selectivity (% A* in 1 μM) E2” value is listed as 99%.

`O=C(NCc1ccc(Cl)cc1)C(=O)Nc1ccccc1` [Compound 104]: the remaining activity at 1 µM in assay [3] came out at 140%. Moreover, 1000 nM corresponded to half-maximal inhibition in assay [2] (IC50). In assay [4], the “Selectivity (% A* in 1 μM) E2” value is listed as 113%.

In assay [2], `O=C1NC(=O)N(c2ccccc2)C(=O)/C1=C\c1ccc2c(c1)OCO2` [Compound 4] displayed an IC50 of 800 nM.

Take `O=c1oc2ccccc2c(O)c1C(=S)Nc1ccccc1` [Compound 96]: the activity at 3 µM in assay [1] came to 56%. Inhibition in assay [2] was half-maximal at 500 nM (IC50).
